{
  "source": "patent US10597388B2",
  "about": "“Pyridazinone herbicides” (FMC CORPORATION, priority 2014, dated 2020)",
  "assay_type_in_all_cases": "in vivo",
  "key": {"[1]": {"system": "rice (Oryza sativa)", "assay": "Test B flooded paddy test", "details": "250 g ai/ha, Flood; visual rating on scale of 0 to 100 where 0 is no effect and 100 is complete control; 13 to 15 d after treatment", "method_in_brief": "(§1)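 Plants grown to the 2-leaf stage. At treatment, pots were flooded to 3 cm above the soil, compound was applied directly to the paddy water, and that depth was held throughout. After 13 to 15 d in the greenhouse, response was rated visually against controls on a 0 (no effect) to 100 (complete control) scale.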"}, "[2]": {"system": "barnyardgrass (Echinochloa crus-galli)", "assay": "Test B flooded paddy test", "details": "250 g ai/ha, Flood; visual rating on scale of 0 to 100 where 0 is no effect and 100 is complete control; 13 to 15 d after treatment", "method_in_brief": "as §1"}, "[3]": {"system": "sedge, umbrella (small-flower umbrella sedge, Cyperus difformis)", "assay": "Test B flooded paddy test", "details": "250 g ai/ha, Flood; visual rating on scale of 0 to 100 where 0 is no effect and 100 is complete control; 13 to 15 d after treatment", "method_in_brief": "as §1"}, "[4]": {"system": "ducksalad (Heteranthera limosa)", "assay": "Test B flooded paddy test", "details": "250 g ai/ha, Flood; visual rating on scale of 0 to 100 where 0 is no effect and 100 is complete control; 13 to 15 d after treatment", "method_in_brief": "as §1"}, "[5]": {"system": "galium (catchweed bedstraw, Galium aparine)", "assay": "Test A greenhouse herbicide test, postemergence", "details": "for Plant response rating, Galium: 125 g ai/ha, 0 to 100 scale where 0 is no effect and 100 is complete control; for Galium plant response rating: 500 g ai/ha, 0 to 100 scale, 0 is no effect, 100 is complete control", "method_in_brief": "(§2)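 Pot-grown plants (loam soil/sand blend), 2–10 cm tall at the one- to two-leaf stage, received postemergence sprays of formulated test chemical. After about 10 d in the greenhouse, injury was rated visually against untreated controls on a 0 (no effect) to 100 (complete control) scale.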"}, "[6]": {"system": "blackgrass (Alopecurus myosuroides)", "assay": "Test A greenhouse herbicide test, postemergence", "details": "for Plant response rating, Blackgrass: 125 g ai/ha, 0 to 100 scale where 0 is no effect and 100 is complete control; for Blackgrass plant response rating: 500 g ai/ha, 0 to 100 scale, 0 is no effect, 100 is complete control", "method_in_brief": "as §2"}, "[7]": {"system": "pigweed (Amaranthus retroflexus)", "assay": "Test A greenhouse herbicide test, pre- and postemergence", "description": "(§3) Seeds of plant species selected from barnyardgrass (Echinochloa crus-galli), kochia (Kochia scoparia), ragweed (common ragweed, Ambrosia elatior), ryegrass, Italian (Italian ryegrass, Lolium multiflorum), crabgrass, large (large crabgrass, Digitaria sanguinalis), foxtail, giant (giant foxtail, Setaria faberii), momingglory (Ipomoea spp.), pigweed (Amaranthus retroflexus), velvetleaf (Abutilon theophrasti), wheat (Triticum aestivum), and corn (Zea mays) were planted into a blend of loam soil and sand and treated preemergence with a directed soil spray using test chemicals formulated in a non-phytotoxic solvent mixture which included a surfactant.\n(§4) At the same time, plants selected from these crop and weed species and also blackgrass (Alopecurus myosuroides), and galium (catchweed bedstraw, Galium aparine) were planted in pots containing the same blend of loam soil and sand and treated with postemergence applications of test chemicals formulated in the same manner. Plants ranged in height from 2 to 10 cm and were in the one- to two-leaf stage for the postemergence treatment. Treated plants and untreated controls were maintained in a greenhouse for approximately 10 d, after which time all treated plants were compared to untreated controls and visually evaluated for injury. Plant response ratings, summarized in Table A, are based on a 0 to 100 scale where 0 is no effect and 100 is complete control. A dash (-) response means no test result."}, "[8]": {"system": "barnyardgrass (Echinochloa crus-galli)", "assay": "Test A greenhouse herbicide test, pre- and postemergence", "description": "as §3, §4"}, "[9]": {"system": "kochia (Kochia scoparia)", "assay": "Test A greenhouse herbicide test, pre- and postemergence", "description": "as §3, §4"}, "[10]": {"system": "corn (Zea mays)", "assay": "Test A greenhouse herbicide test, pre- and postemergence", "details": "Postemergence; for Plant response rating, Corn: 125 g ai/ha, 0 to 100 scale where 0 is no effect and 100 is complete control; for Corn plant response rating: 500 g ai/ha, 0 to 100 scale, 0 is no effect, 100 is complete control", "description": "as §3, §4"}, "[11]": {"system": "foxtail, giant (giant foxtail, Setaria faberii)", "assay": "Test A greenhouse herbicide test, pre- and postemergence", "description": "as §3, §4"}, "[12]": {"system": "ragweed (common ragweed, Ambrosia elatior)", "assay": "Test A greenhouse herbicide test, pre- and postemergence", "description": "as §3, §4"}, "[13]": {"system": "ryegrass, Italian (Italian ryegrass, Lolium multiflorum)", "assay": "Test A greenhouse herbicide test, pre- and postemergence", "description": "as §3, §4"}, "[14]": {"system": "wheat (Triticum aestivum)", "assay": "Test A greenhouse herbicide test, pre- and postemergence", "details": "Postemergence; for Plant response rating, Wheat: 125 g ai/ha, 0 to 100 scale where 0 is no effect and 100 is complete control; for Wheat plant response rating: 500 g ai/ha, 0 to 100 scale, 0 is no effect, 100 is complete control", "description": "as §3, §4"}, "[15]": {"details": "Postemergence, 125 g ai/ha, 0 to 100 scale where 0 is no effect and 100 is complete control"}, "[16]": {"details": "Postemergence, 500 g ai/ha, 0 to 100 scale, 0 is no effect, 100 is complete control"}, "[17]": {"details": "Preemergence, 125 g ai/ha, 0 to 100 scale where 0 is no effect and 100 is complete control"}, "[18]": {"details": "Preemergence, 500 g ai/ha, 0 to 100 scale, 0 no effect, 100 complete control"}},
  "data": [
    {"smiles": "Cc1cc(C)c2c(-c3c(OC(=O)C(C)(C)C)c(C)nn(C)c3=O)c(C)sc2c1", "note": "[Compound 45]", "values": [
      {"measurement": "Plant response rating, Rice", "setting": "[1]", "value": 0},
      {"measurement": "Plant response rating, Barnyardgrass", "setting": "[2]", "value": 0},
      {"measurement": "Plant response rating, Sedge, Umbrella", "setting": "[3]", "value": 0},
      {"measurement": "Plant response rating, Ducksalad", "setting": "[4]", "value": 0},
      {"measurement": "Plant response rating, Galium", "setting": "[5]", "value": 0},
      {"measurement": "Galium plant response rating", "setting": "[5]", "value": 0},
      {"measurement": "Plant response rating, Blackgrass", "setting": "[6]", "value": 0},
      {"measurement": "Blackgrass plant response rating", "setting": "[6]", "value": 0},
      {"measurement": "Plant response rating, Pigweed", "setting": "[7]; [15]", "value": 0},
      {"measurement": "Pigweed plant response rating", "setting": "[7]; [16]", "value": 0},
      {"measurement": "Pigweed plant response rating", "setting": "[7]; [17]", "value": 0},
      {"measurement": "Plant response rating, Pigweed", "setting": "[7]; [18]", "value": 0},
      {"measurement": "Plant response rating, Barnyardgrass", "setting": "[8]; [15]", "value": 0},
      {"measurement": "Barnyardgrass plant response rating", "setting": "[8]; [16]", "value": 0},
      {"measurement": "Barnyardgrass plant response rating", "setting": "[8]; [17]", "value": 0},
      {"measurement": "Plant response rating, Barnyardgrass", "setting": "[8]; [18]", "value": 0},
      {"measurement": "Plant response rating, Kochia", "setting": "[9]; [15]", "value": 0},
      {"measurement": "Kochia plant response rating", "setting": "[9]; [16]", "value": 0},
      {"measurement": "Kochia plant response rating", "setting": "[9]; [17]", "value": 0},
      {"measurement": "Plant response rating, Kochia", "setting": "[9]; [18]", "value": 0},
      {"measurement": "Plant response rating, Corn", "setting": "[10]", "value": 0},
      {"measurement": "Corn plant response rating", "setting": "[10]", "value": 0},
      {"measurement": "Plant response rating, Foxtail, Giant", "setting": "[11]; [15]", "value": 0},
      {"measurement": "Foxtail, Giant plant response rating", "setting": "[11]; [16]", "value": 0},
      {"measurement": "Foxtail, Giant plant response rating", "setting": "[11]; [17]", "value": 0},
      {"measurement": "Plant response rating, Foxtail, Giant", "setting": "[11]; [18]", "value": 0},
      {"measurement": "Plant response rating, Ragweed", "setting": "[12]; [15]", "value": 0},
      {"measurement": "Ragweed plant response rating", "setting": "[12]; [16]", "value": 0},
      {"measurement": "Ragweed plant response rating", "setting": "[12]; [17]", "value": 0},
      {"measurement": "Plant response rating, Ragweed", "setting": "[12]; [18]", "value": 0},
      {"measurement": "Plant response rating, Ryegrass, Italian", "setting": "[13]; [15]", "value": 0},
      {"measurement": "Ryegrass, Italian plant response rating", "setting": "[13]; [16]", "value": 0},
      {"measurement": "Ryegrass, Italian plant response rating", "setting": "[13]; [17]", "value": 0},
      {"measurement": "Plant response rating, Ryegrass, Italian", "setting": "[13]; [18]", "value": 0},
      {"measurement": "Plant response rating, Wheat", "setting": "[14]", "value": 0},
      {"measurement": "Wheat plant response rating", "setting": "[14]", "value": 0}
    ]},
    {"smiles": "Cc1ccc(-c2c(O)cnn(C)c2=O)c2ccccc12", "note": "[Compound 50]", "values": [
      {"measurement": "Plant response rating, Rice", "setting": "[1]", "value": 0},
      {"measurement": "Plant response rating, Barnyardgrass", "setting": "[2]", "value": 0},
      {"measurement": "Plant response rating, Sedge, Umbrella", "setting": "[3]", "value": 0},
      {"measurement": "Plant response rating, Ducksalad", "setting": "[4]", "value": 0},
      {"measurement": "Plant response rating, Galium", "setting": "[5]", "value": 60},
      {"measurement": "Galium plant response rating", "setting": "[5]", "value": 80},
      {"measurement": "Plant response rating, Blackgrass", "setting": "[6]", "value": 0},
      {"measurement": "Blackgrass plant response rating", "setting": "[6]", "value": 10},
      {"measurement": "Plant response rating, Pigweed", "setting": "[7]; [15]", "value": 20},
      {"measurement": "Pigweed plant response rating", "setting": "[7]; [16]", "value": 50},
      {"measurement": "Pigweed plant response rating", "setting": "[7]; [17]", "value": 0},
      {"measurement": "Plant response rating, Pigweed", "setting": "[7]; [18]", "value": 0},
      {"measurement": "Plant response rating, Barnyardgrass", "setting": "[8]; [15]", "value": 0},
      {"measurement": "Barnyardgrass plant response rating", "setting": "[8]; [16]", "value": 0},
      {"measurement": "Barnyardgrass plant response rating", "setting": "[8]; [17]", "value": 0},
      {"measurement": "Plant response rating, Barnyardgrass", "setting": "[8]; [18]", "value": 0},
      {"measurement": "Plant response rating, Kochia", "setting": "[9]; [15]", "value": 0},
      {"measurement": "Kochia plant response rating", "setting": "[9]; [16]", "value": 20},
      {"measurement": "Kochia plant response rating", "setting": "[9]; [17]", "value": 0},
      {"measurement": "Plant response rating, Kochia", "setting": "[9]; [18]", "value": 0},
      {"measurement": "Plant response rating, Corn", "setting": "[10]", "value": 0},
      {"measurement": "Corn plant response rating", "setting": "[10]", "value": 0},
      {"measurement": "Plant response rating, Foxtail, Giant", "setting": "[11]; [15]", "value": 0},
      {"measurement": "Foxtail, Giant plant response rating", "setting": "[11]; [16]", "value": 0},
      {"measurement": "Foxtail, Giant plant response rating", "setting": "[11]; [17]", "value": 0},
      {"measurement": "Plant response rating, Foxtail, Giant", "setting": "[11]; [18]", "value": 0},
      {"measurement": "Plant response rating, Ragweed", "setting": "[12]; [15]", "value": 0},
      {"measurement": "Ragweed plant response rating", "setting": "[12]; [16]", "value": 20},
      {"measurement": "Ragweed plant response rating", "setting": "[12]; [17]", "value": 0},
      {"measurement": "Plant response rating, Ragweed", "setting": "[12]; [18]", "value": 0},
      {"measurement": "Plant response rating, Ryegrass, Italian", "setting": "[13]; [15]", "value": 20},
      {"measurement": "Ryegrass, Italian plant response rating", "setting": "[13]; [16]", "value": 40},
      {"measurement": "Ryegrass, Italian plant response rating", "setting": "[13]; [17]", "value": 0},
      {"measurement": "Plant response rating, Ryegrass, Italian", "setting": "[13]; [18]", "value": 10},
      {"measurement": "Plant response rating, Wheat", "setting": "[14]", "value": 0},
      {"measurement": "Wheat plant response rating", "setting": "[14]", "value": 0}
    ]}
  ]
}
